Assay results reported in patent US10308663B2, “Inhibitors of PTP4A3 for the treatment of cancer” (University of Virginia Patent Foundation, priority 2015, dated 2019).

Columns and labels:
SKOV3 = assay: Ovarian cancer cell drug susceptibility (Alamar blue), SKOV3; assay type: cell-based, human; conditions: 44 h + 4 h Alamar blue
[1] = system: A2780CP20 (Cisplatin resistant); assay: Ovarian cancer cell drug susceptibility (Alamar blue), A2780CP20; assay type: cell-based, human; conditions: 44 h + 4 h Alamar blue
OVCAR-4 = assay: Ovarian cancer cell drug susceptibility (Alamar blue), OVCAR-4; assay type: cell-based, human; conditions: 44 h + 4 h Alamar blue
[2] = system: A2780CW (Cisplatin sensitive); assay: Ovarian cancer cell drug susceptibility (Alamar blue), A2780CW; assay type: cell-based, human; conditions: 44 h + 4 h Alamar blue
PTPeD1 = PTPeD1 (Homo sapiens (Human), UniProt P23469); conditions: DiFMUP as a substrate; reported by Hoeger et al.; cited from earlier work
[3] = system: MsTuWT cells (Ptp4a3 wildtype); assay: Cell adhesion assay (xCELLigence), MsTuWT; assay type: cell-based, mouse; conditions: xCELLigence Cell Index
HCP cat = HCP cat (Homo sapiens (Human), UniProt P29350); conditions: DiFMUP as a substrate; reported by Hoeger et al.; cited from earlier work
PTPb cat = PTPb cat (Homo sapiens (Human), UniProt P23467); conditions: DiFMUP as a substrate; reported by Hoeger et al.; cited from earlier work
PTPaD1 = PTPaD1 (Homo sapiens (Human), UniProt P18433); conditions: DiFMUP as a substrate; reported by Hoeger et al.; cited from earlier work
SHP2 cat = SHP2 cat (Homo sapiens (Human), UniProt Q06124); conditions: DiFMUP as a substrate; reported by Hoeger et al.; cited from earlier work
CD45 = CD45 (Homo sapiens (Human), UniProt P08575); conditions: DiFMUP as a substrate; reported by Hoeger et al.; cited from earlier work
PTP-Tcell = PTP-Tcell (Homo sapiens (Human), UniProt P17706); conditions: DiFMUP as a substrate; reported by Hoeger et al.; cited from earlier work
LARD1 = LARD1 (Homo sapiens (Human), UniProt P10586); conditions: DiFMUP as a substrate; reported by Hoeger et al.; cited from earlier work
[4] = Spontaneous conversion of 5 to 6 under assay conditions; assay type: physicochemical; conditions: 90 min, in the presence or absence of DTT
PTPgD1 = PTPgD1 (Homo sapiens (Human), UniProt P23470); conditions: DiFMUP as a substrate; reported by Hoeger et al.; cited from earlier work
PTP1B = PTP1B (Homo sapiens (Human), UniProt P18031); conditions: DiFMUP as a substrate; reported by Hoeger et al.; cited from earlier work
Chain of PTP1B (P18031 whole entry, species assumed): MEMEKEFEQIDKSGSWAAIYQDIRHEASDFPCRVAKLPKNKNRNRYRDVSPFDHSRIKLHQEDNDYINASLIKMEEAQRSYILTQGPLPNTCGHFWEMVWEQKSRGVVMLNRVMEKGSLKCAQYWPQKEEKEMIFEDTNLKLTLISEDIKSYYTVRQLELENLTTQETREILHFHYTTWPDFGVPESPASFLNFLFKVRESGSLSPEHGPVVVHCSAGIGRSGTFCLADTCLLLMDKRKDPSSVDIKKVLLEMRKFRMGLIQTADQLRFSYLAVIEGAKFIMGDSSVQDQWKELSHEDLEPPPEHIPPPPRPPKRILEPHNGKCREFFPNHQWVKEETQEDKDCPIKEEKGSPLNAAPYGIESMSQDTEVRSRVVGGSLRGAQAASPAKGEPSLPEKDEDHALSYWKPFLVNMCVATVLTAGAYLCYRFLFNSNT

Chain of PTP-Tcell (P17706 whole entry): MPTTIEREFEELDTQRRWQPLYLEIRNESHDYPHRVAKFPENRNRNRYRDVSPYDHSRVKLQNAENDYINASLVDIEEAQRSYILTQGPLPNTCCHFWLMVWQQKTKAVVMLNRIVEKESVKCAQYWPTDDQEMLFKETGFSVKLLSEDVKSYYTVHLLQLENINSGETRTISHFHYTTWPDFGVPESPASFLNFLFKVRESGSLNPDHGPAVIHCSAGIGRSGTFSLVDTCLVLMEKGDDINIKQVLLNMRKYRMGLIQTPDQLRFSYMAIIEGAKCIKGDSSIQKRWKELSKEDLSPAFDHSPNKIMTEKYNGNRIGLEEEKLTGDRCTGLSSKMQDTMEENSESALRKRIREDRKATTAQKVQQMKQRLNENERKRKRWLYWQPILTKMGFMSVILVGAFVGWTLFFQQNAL
Chain of HCP cat (P29350 244-515): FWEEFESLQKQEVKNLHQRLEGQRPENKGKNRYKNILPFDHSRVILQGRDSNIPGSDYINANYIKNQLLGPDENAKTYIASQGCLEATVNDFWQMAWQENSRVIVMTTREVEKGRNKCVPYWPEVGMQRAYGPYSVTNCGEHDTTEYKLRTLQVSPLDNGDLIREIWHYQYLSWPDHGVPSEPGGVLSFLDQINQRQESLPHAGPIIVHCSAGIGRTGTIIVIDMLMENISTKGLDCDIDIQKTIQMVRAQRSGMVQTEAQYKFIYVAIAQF
Chain of PTPaD1 (P18433 241-501): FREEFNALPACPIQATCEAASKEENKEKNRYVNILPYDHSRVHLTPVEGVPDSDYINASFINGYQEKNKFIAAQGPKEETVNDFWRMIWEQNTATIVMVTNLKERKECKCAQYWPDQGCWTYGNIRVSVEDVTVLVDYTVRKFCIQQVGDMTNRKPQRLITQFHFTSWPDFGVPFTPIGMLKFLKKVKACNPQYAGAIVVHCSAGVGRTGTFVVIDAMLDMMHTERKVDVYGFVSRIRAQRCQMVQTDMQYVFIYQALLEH
Chain of CD45 (P08575 26-1306, species assumed): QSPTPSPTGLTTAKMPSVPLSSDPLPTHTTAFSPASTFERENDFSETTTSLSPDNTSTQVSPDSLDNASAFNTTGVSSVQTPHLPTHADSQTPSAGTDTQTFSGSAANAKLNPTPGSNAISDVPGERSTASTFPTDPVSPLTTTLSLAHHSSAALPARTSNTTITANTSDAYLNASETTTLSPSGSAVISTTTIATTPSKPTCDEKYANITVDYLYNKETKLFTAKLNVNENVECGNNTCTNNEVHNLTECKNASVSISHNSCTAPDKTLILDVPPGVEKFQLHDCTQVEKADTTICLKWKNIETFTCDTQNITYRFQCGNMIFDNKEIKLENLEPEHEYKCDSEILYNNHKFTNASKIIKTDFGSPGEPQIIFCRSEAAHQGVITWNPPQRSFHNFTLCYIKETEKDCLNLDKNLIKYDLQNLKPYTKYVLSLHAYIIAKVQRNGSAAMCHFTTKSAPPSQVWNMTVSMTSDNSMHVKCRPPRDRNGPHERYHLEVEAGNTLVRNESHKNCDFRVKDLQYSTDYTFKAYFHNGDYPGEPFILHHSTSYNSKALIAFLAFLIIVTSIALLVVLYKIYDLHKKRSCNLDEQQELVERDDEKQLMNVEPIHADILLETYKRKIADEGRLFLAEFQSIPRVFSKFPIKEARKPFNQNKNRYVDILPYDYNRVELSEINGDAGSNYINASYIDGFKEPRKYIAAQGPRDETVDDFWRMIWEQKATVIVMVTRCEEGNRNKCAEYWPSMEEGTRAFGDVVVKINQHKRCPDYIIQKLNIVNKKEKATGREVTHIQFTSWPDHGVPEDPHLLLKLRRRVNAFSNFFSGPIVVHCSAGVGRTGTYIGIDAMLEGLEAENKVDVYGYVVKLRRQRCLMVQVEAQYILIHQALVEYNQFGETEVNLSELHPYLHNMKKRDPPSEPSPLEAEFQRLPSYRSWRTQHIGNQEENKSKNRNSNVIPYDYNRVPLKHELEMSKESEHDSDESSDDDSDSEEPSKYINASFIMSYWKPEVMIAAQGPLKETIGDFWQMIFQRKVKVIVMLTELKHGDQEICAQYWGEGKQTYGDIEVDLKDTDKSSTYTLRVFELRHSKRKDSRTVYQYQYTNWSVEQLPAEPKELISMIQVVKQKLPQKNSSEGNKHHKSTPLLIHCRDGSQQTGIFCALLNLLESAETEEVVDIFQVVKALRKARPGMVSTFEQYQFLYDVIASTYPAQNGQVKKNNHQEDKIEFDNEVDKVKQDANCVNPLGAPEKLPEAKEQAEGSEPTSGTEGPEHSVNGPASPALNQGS
Chain of LARD1 (P10586 1352-1607): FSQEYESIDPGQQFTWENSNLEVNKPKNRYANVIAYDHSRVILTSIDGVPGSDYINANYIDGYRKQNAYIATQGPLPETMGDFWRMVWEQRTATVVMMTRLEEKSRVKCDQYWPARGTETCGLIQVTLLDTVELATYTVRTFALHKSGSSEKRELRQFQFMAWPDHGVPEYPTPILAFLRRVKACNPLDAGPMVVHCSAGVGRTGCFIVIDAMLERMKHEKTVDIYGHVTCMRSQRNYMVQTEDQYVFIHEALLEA
Chain of PTPeD1 (P23469 135-394): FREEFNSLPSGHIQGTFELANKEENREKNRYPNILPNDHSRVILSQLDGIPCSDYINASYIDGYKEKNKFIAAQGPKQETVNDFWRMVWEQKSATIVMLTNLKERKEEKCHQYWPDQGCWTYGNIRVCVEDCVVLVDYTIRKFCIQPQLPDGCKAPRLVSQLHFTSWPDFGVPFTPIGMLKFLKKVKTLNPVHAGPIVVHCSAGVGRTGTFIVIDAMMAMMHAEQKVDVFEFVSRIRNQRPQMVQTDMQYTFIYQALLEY
Chain of SHP2 cat (Q06124 247-517): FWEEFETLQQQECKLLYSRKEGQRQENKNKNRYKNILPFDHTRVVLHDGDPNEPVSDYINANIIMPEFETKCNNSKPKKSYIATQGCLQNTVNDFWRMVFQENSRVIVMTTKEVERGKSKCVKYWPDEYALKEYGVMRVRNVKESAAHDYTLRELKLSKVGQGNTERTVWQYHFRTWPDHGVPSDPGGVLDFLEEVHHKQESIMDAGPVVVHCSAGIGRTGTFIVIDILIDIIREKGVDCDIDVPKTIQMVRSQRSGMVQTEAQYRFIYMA
Chain of PTPgD1 (P23470 848-1119): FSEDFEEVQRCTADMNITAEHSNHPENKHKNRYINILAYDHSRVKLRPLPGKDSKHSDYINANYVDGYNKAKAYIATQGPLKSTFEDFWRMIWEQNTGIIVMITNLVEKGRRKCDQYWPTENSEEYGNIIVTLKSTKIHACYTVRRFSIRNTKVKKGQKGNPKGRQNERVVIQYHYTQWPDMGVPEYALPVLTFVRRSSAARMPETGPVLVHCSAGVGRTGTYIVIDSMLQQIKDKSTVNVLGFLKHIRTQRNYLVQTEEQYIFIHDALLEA
Chain of PTPb cat (P23467 1703-1963): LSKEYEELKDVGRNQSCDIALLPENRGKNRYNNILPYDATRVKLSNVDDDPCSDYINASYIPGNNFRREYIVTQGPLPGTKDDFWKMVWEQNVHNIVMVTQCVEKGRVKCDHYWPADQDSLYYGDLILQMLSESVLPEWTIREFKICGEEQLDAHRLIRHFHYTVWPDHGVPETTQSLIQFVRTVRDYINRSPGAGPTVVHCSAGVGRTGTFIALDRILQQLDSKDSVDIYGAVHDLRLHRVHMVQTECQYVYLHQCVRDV

EC50 (SKOV3; Homo sapiens, SK-OV-3)	EC50 ([1]; Homo sapiens)	EC50 (OVCAR-4; Homo sapiens, OVCAR-4)	EC50 ([2]; Homo sapiens)	SMILES	EC50 (SKOV3)	EC50 [1]	EC50 (OVCAR-4)	EC50 [2]	IC50 (PTPeD1)	MsTuWT adherence [3]	IC50 (HCP cat)	IC50 (PTPb cat)	IC50 (PTPaD1)	IC50 (SHP2 cat)	IC50 (CD45)	IC50 (PTP-Tcell)	IC50 (LARD1)	spontaneous conversion of 5 to 6 [4]	IC50 (PTPgD1)	IC50 (PTP1B)
48.3 ± 9.1 µM	17.3 ± 2 µM	48.5 ± 7.9 µM	26.4 ± 1 µM	O=C1NC(=S)S/C1=C/c1cc(Br)ccc1OCc1ccccc1Br [BR-1]	–	–	–	–	–	–	–	–	–	–	–	–	–	–	–	–
–	–	–	–	N.N.[Cl][Pt][Cl] [Cisplatin]	> 100 µM	> 100 µM	30.3 ± 4.4 µM	3.7 ± 1.8 µM	–	–	–	–	–	–	–	–	–	–	–	–
> 50 µM	> 50 µM	> 50 µM	> 50 µM	O=c1[nH]c(=O)c2cc(-c3ccccc3)sc2[nH]1 [JMS-557-038]	–	–	–	–	–	–	–	–	–	–	–	–	–	–	–	–

SMILES	EC50 (SKOV3; Homo sapiens, SK-OV-3)	EC50 ([1]; Homo sapiens)	EC50 (OVCAR-4; Homo sapiens, OVCAR-4)	EC50 ([2]; Homo sapiens)	EC50 (SKOV3)	EC50 [1]	EC50 (OVCAR-4)	EC50 [2]	IC50 (PTPeD1)	MsTuWT adherence [3]	IC50 (HCP cat)	IC50 (PTPb cat)	IC50 (PTPaD1)	IC50 (SHP2 cat)	IC50 (CD45)	IC50 (PTP-Tcell)	IC50 (LARD1)	spontaneous conversion of 5 to 6 [4]	IC50 (PTPgD1)	IC50 (PTP1B)
Nc1c[nH]c(=O)c2cc(-c3ccccc3)sc12 [Thienopyridone (5), 7-amino-2-phenylthieno[3,2-c]pyridin-4(5H)-one]	28.8 ± 2.2 µM	13.1 ± 6 µM	15.5 ± 2.4 µM	4.5 ± 0.6 µM	–	–	–	–	> 100 µM	inhibited	71 µM	67 µM	> 100 µM	> 100 µM	> 100 µM	> 100 µM	> 100 µM	not detect quantifiable (>5%) spontaneous conversion	> 100 µM	> 100 µM
